In PubChem BioAssay AID330 (DTP/NCI, 2004):
Where “and” joins values, the source holds several entries; their conditions need not be identical. Equal values may be shown once. Toxic doses and inconclusive results are not listed.

System: P388 leukemia ip, CD2F1 mice, survival T/C
Assay: NCI In Vivo Anticancer Drug Screen. Data for tumor model P388 Leukemia (intraperitoneal) in CD2F1 (CDF1) mice
Conditions: endpoint: median survival time, higher = longer survival
How it was run: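 Mice carrying the transplanted tumor received test compound or vehicle. Survival was recorded in each group, and the value is the treated-group measurement divided by that of the vehicle-treated control group.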

[1] = dose: 12.5 mg/kg/injection, schedule: Q01DX005 (ip), vehicle: saline with Tween-80

Cc1cc2nc3c(=O)[nH]c(=O)nc-3n(CC=O)c2cc1C
T/C (dose: 16.0 mg/kg/injection, schedule: Q01DX009 (ip), vehicle: saline with Tween-80): 92 % of control
T/C (dose: 32.0 mg/kg/injection, schedule: Q01DX009 (ip), vehicle: saline with Tween-80): 91 % of control
T/C (dose: 64.0 mg/kg/injection, schedule: Q01DX009 (ip), vehicle: saline with Tween-80): 90 % of control
T/C (dose: 128.0 mg/kg/injection, schedule: Q01DX009 (ip), vehicle: saline with Tween-80): 90 % of control
T/C (dose: 135.0 mg/kg/injection, schedule: Q01DX009 (ip), vehicle: saline with Tween-80): 104 % of control
T/C (dose: 180.0 mg/kg/injection, schedule: Q01DX009 (ip), vehicle: saline with Tween-80): 104 % of control
T/C (dose: 240.0 mg/kg/injection, schedule: Q01DX009 (ip), vehicle: saline with Tween-80): 104 % of control
T/C (dose: 256.0 mg/kg/injection, schedule: Q01DX009 (ip), vehicle: saline with Tween-80): 102 % of control
T/C (dose: 320.0 mg/kg/injection, schedule: Q01DX009 (ip), vehicle: saline with Tween-80): 102 % of control

Brc1ccccc1C(Nc1nncs1)Nc1nncs1
T/C (dose: 60.0 mg/kg/injection, schedule: Q01DX005 (ip), vehicle: saline with Tween-80): 117 % of control and 123 % of control
T/C (dose: 240.0 mg/kg/injection, schedule: Q01DX005 (ip), vehicle: saline with Tween-80): 154 % of control and 156 % of control
T/C (dose: 480.0 mg/kg/injection, schedule: Q01DX005 (ip), vehicle: saline with Tween-80): 169 % of control

CCCCN=NN(C)CCCC
T/C [1]: 107 % of control
T/C (dose: 25.0 mg/kg/injection, schedule: Q01DX005 (ip), vehicle: saline with Tween-80): 117 % of control

CC1CN=C(c2cccc(NC(=O)NCCCCNC(=O)Nc3cccc(C4=NCC(C)N4)c3)c2)N1 (centres undefined)
T/C (dose: 6.25 mg/kg/injection, schedule: Q01DX005 (ip), vehicle: saline with Tween-80): 100 % of control
T/C [1]: 104 % of control

CN(CCC(=O)c1ccc(Cl)cc1)CCC(=O)c1ccc(Cl)cc1
T/C (dose: 50.0 mg/kg/injection, schedule: Q01DX005 (ip), vehicle: Klucel (hydroxypropylcellulose) (HPC)): 117 % of control
T/C (dose: 100.0 mg/kg/injection, schedule: Q01DX005 (ip), vehicle: Klucel (hydroxypropylcellulose) (HPC)): 108 % of control
T/C (dose: 200.0 mg/kg/injection, schedule: Q01DX005 (ip), vehicle: Klucel (hydroxypropylcellulose) (HPC)): 104 % of control

CC(=O)OC1C=CCC2C(=O)C34CC=CC(OC(C)=O)C3(C(=O)c3ccccc3C4=O)C(=O)C12 (centres undefined)
T/C (dose: 6.25 mg/kg/injection, schedule: Q01DX009 (ip), vehicle: saline with Tween-80): 103 % of control
T/C (dose: 12.5 mg/kg/injection, schedule: Q01DX009 (ip), vehicle: saline with Tween-80): 101 % of control
T/C (dose: 25.0 mg/kg/injection, schedule: Q01DX009 (ip), vehicle: saline with Tween-80): 120 % of control
T/C (dose: 50.0 mg/kg/injection, schedule: Q01DX009 (ip), vehicle: saline with Tween-80): 116 % of control
T/C (dose: 100.0 mg/kg/injection, schedule: Q01DX009 (ip), vehicle: saline with Tween-80): 116 % of control

CCOC(=O)CC(=O)c1ccc(C)cc1
T/C (dose: 100.0 mg/kg/injection, schedule: Q04DX003 (ip), vehicle: saline with Tween-80): 100 % of control
T/C (dose: 200.0 mg/kg/injection, schedule: Q04DX003 (ip), vehicle: saline with Tween-80): 104 % of control
T/C (dose: 400.0 mg/kg/injection, schedule: Q04DX003 (ip), vehicle: saline with Tween-80): 109 % of control

NC(=O)c1ccc2nccn2c1
T/C (dose: 50.0 mg/kg/injection, schedule: Q04DX003 (ip), vehicle: saline): 101 % of control
T/C (dose: 100.0 mg/kg/injection, schedule: Q04DX003 (ip), vehicle: saline): 115 % of control
T/C (dose: 200.0 mg/kg/injection, schedule: Q04DX003 (ip), vehicle: saline): 119 % of control

NCC(O)c1ccc(Nc2ccnc3cc(Cl)ccc23)cc1 (centres undefined)
T/C (dose: 50.0 mg/kg/injection, schedule: Q01DX005 (ip), vehicle: saline): 114 % of control
T/C (dose: 100.0 mg/kg/injection, schedule: Q01DX005 (ip), vehicle: saline): 105 % of control

CC(=O)OC(COS(C)(=O)=O)C(OC(C)=O)C(OC(C)=O)C(COS(C)(=O)=O)OC(C)=O (centres undefined)
T/C (dose: 100.0 mg/kg/injection, schedule: Q01DX001 (ip), vehicle: Klucel (hydroxypropylcellulose) (HPC)): 108 % of control
T/C (dose: 200.0 mg/kg/injection, schedule: Q01DX001 (ip), vehicle: Klucel (hydroxypropylcellulose) (HPC)): 100 % of control
T/C (dose: 400.0 mg/kg/injection, schedule: Q01DX001 (ip), vehicle: Klucel (hydroxypropylcellulose) (HPC)): 117 % of control

NC(=O)CC1OC(=O)Cc2cc3c(c(O)c21)C(=O)c1c(O)cccc1C3=O (centres undefined)
T/C (dose: 0.75 mg/kg/injection, schedule: Q01DX009 (ip), vehicle: DMSO): 109 % of control
T/C (dose: 1.5 mg/kg/injection, schedule: Q01DX009 (ip), vehicle: DMSO): 107 % of control
T/C (dose: 3.0 mg/kg/injection, schedule: Q01DX009 (ip), vehicle: DMSO): 107 % of control
T/C (dose: 6.0 mg/kg/injection, schedule: Q01DX009 (ip), vehicle: DMSO): 107 % of control
